Patent US20120116069A1, “GLUCOSE METABOLISM-IMPROVING AGENT AND GLUCOSE METABOLISM-IMPROVING COMPOSITION” (LION CORPORATION, priority 2009, published 2012)

Assays:
[1] = system: model mice of hyperglycemia (KKAy mice); experiment: Blood sugar level of model mice of hyperglycemia bred five days on PT- or PD-containing high fat diet; format: in vivo, mouse; settings: for Blood sugar level (post-breeding): after five days; for Blood sugar level (initial value): before breeding
Description: Panaxatriol (PT) (product of LKT Laboratories, Inc.) was mixed with a commercially available high fat diet (trade name: Quick Fat, product of CLEA Japan, Inc.) in amounts shown in the following Table 1. Each of the thus-prepared feeds was given ad libitum to model mice of hyperglycemia (KKAy mice (product of CLEA Japan, Inc.), eight weeks old, 5 mice/group) to breed them for five days (hereinafter these groups may be referred to as “PT-containing group”). Mice of a control group were given a panaxatriol (PT)-free feed (hereinafter this group may be referred to as “PT-free group”). The blood sugar level was measured at 10 a.m. before breeding of the panaxatriol (PT)-containing high fat diet (initial value) and after breeding thereof (post-breeding). […] GB SENSOR (product of Sanko Junyaku Co., Ltd.) was used for the measurement of the blood sugar level. The values shown in the following Table 1 are calculated on the basis of the average value of two values obtained by measuring each individual twice for the postprandial blood sugar level. […] Panaxadiol (PD) (product of LKT Laboratories, Inc.) was mixed with a commercially available high fat diet (trade name: Quick Fat, product of CLEA Japan, Inc.) in amounts shown in the following Table 2. Each of the thus-prepared feeds was given ad libitum to model mice of hyperglycemia (KKAy mice (product of CLEA Japan, Inc.), eight weeks old, 5 mice/group) to breed them for five days (hereinafter these groups may be referred to as “PD-containing group”). Mice of a control group were given a panaxadiol (PD)-free feed (hereinafter this group may be referred to as “PD-free group”). The blood sugar level was measured at 10 a.m. before breeding of the panaxadiol (PD)-containing high fat diet (initial value) and after breeding thereof (post-breeding). […] GB SENSOR (product of Sanko Junyaku Co., Ltd.) was used for the measurement of the blood sugar level. The values shown in the following Table 2 are calculated on the basis of the average value of two values obtained by measuring each individual twice for the postprandial blood sugar level.

[2] = system: human subjects having a fasting blood sugar level of 120 mg/dL to 140 mg/dL; experiment: Test of PT/PD intake for human: fasting and postprandial blood sugar level, blood indices; format: in vivo; settings: for fasting blood sugar level: 8 mg capsule once a day for eight weeks; for fasting blood sugar level / postprandial blood sugar level: compared with the placebo-given group; for postprandial blood sugar level / 1-5AG / Glycoalbumin / HbA1c / Insulin (fasting): 8 mg capsule once a day; for postprandial blood sugar level: 30 min, 60 min and 120 min, starch food load
Description: (§1) Panax notoginseng powder (10 g) was suspended in 100 mL of 30% by mass aqueous solution of ethanol, and then saponins were extracted under heating for 2 hours. The obtained extract was hydrolyzed in the presence of hydrochloric acid to prepare an aglycon-containing product. The aglycon-containing product was treated with a silica gel column (SILICA GEL 60N, product of KANTO CHEMICAL CO., LTD.) to isolate and prepare panaxatriol (PT) having a purity of 99% by mass or higher.
Next, capsules each containing 8 mg of the thus-prepared panaxatriol (PT) were prepared. These capsules were given continuously for eight weeks to human subjects of a group (hereinafter may be referred to as “PT-given group”) to measure the fasting blood sugar level and a change in postprandial blood sugar level which was measured after giving to the human subjects predetermined meals such as a meal containing an excessive amount of starch food (e.g., a rice ball formed of 200 g of cooked rice (350 kcal)). Also, the blood indices measured were the blood HbA1c level, the blood glycoalbumin level, the blood 1·5AG level and the fasting blood insulin level.
The blood sugar levels were measured with a simplified blood sugar meter FREESTYLE (product of NIPRO Co.). The fasting blood sugar level and the fasting insulin level were measured at 9 a.m. The postprandial blood sugar level was measured every 30 min for 120 min from 9 a.m. to 11:30 a.m. after the predetermined starch food had been given to the subjects. The HbA1c, glycoalbumin and 1·5AG levels were measured by a routine method of a medical facility using the blood sampled at 9 a.m.
(§2) The 24 subjects were randomly divided to two groups and assigned to a placebo-given group, serving as a control, and a PT-given group. Also, the results were statistically analyzed using the Student's t-test comparing the placebo-given group and the PT-given group. The time at which the capsules were given was set to 10 a.m. every day so that the capsules were not given at the same time as a meal.
as §1, with “panaxadiol (PD)” for “panaxatriol (PT)”
Next, capsules each containing 8 mg of the thus-prepared panaxadiol (PD) were prepared. These capsules were given continuously for eight weeks to human subjects of a group (hereinafter may be referred to as “PD-given group”) to measure the fasting blood sugar level and a change in postprandial blood sugar level which was measured after giving to the human subjects predetermined meals such as a meal containing an excessive amount of starch food (e.g., a rice ball formed of 200 g of cooked rice (350 kcal)). Also, the blood indices measured were the blood HbA1c level, the blood glycoalbumin level, the blood 1·5AG level and the fasting blood insulin level.
as §2, with “and a PD-given group. Also,” for “and a PT-given group. Also,”, “and the PD-given group. The” for “and the PT-given group. The”, “time as the meal.” for “time as a meal.”

[3] = 0.0001% by mass in high fat diet ad libitum
[4] = 0.001% by mass in high fat diet ad libitum
[5] = 0.01% by mass in high fat diet ad libitum
[6] = group 0.0001% by mass in high fat diet
[7] = group 0.001% by mass in high fat diet
[8] = group 0.01% by mass in high fat diet

Structure (SMILES): CC1(C)CCC[C@](C)([C@H]2CC[C@]3(C)[C@@H]2[C@H](O)C[C@@H]2[C@@]4(C)CC[C@H](O)C(C)(C)[C@@H]4CC[C@]23C)O1 [PD, panaxadiol]
- Blood sugar level (post-breeding) [1, 3]: 404 ± 17 mg/dL
- Blood sugar level (post-breeding) [1, 4]: 323 ± 56 mg/dL
- Blood sugar level (post-breeding) [1, 5]: 274 ± 34 mg/dL
- Blood sugar level (initial value) [1, 6]: 454 ± 38 mg/dL
- Blood sugar level (initial value) [1, 7]: 451 ± 34 mg/dL
- Blood sugar level (initial value) [1, 8]: 454 ± 32 mg/dL
- fasting blood sugar level [2]: decreased significantly
- postprandial blood sugar level [2]: decrease significantly
- 1-5AG ([2]; Week 0): 24.4 ± 7.8 µg/mL
- Glycoalbumin ([2]; Week 0): 14.8 ± 1.4 % by mass
- HbA1c ([2]; Week 0): 5.1 ± 0.1 % by mass
- Insulin (fasting) ([2]; Week 0): 5.6 ± 1.4 μU/mL
- 1-5AG ([2]; Week 2): 24.1 ± 7.2 µg/mL
- Glycoalbumin ([2]; Week 2): 14.5 ± 1.2 % by mass
- HbA1c ([2]; Week 2): 5.1 ± 0.2 % by mass
- Insulin (fasting) ([2]; Week 2): 5.9 ± 2.2 μU/mL
- 1-5AG ([2]; Week 4): 25.0 ± 7.3 µg/mL
- Glycoalbumin ([2]; Week 4): 14.3 ± 1.3 % by mass
- HbA1c ([2]; Week 4): 5.1 ± 0.1 % by mass
- Insulin (fasting) ([2]; Week 4): 5.9 ± 3.8 μU/mL
- 1-5AG ([2]; Week 8): 25.7 ± 6.4 µg/mL
- Glycoalbumin ([2]; Week 8): 14.2 ± 1.1 % by mass
- HbA1c ([2]; Week 8): 4.8 ± 0.1 % by mass
- Insulin (fasting) ([2]; Week 8): 6.1 ± 2.6 μU/mL

Structure (SMILES): CC1(C)CCC[C@](C)([C@H]2CC[C@]3(C)[C@@H]2[C@H](O)C[C@@H]2[C@@]4(C)CC[C@H](O)C(C)(C)[C@@H]4[C@@H](O)C[C@]23C)O1 [PT, panaxatriol]
- Blood sugar level (post-breeding) [1, 3]: 401 ± 15 mg/dL
- Blood sugar level (post-breeding) [1, 4]: 318 ± 58 mg/dL
- Blood sugar level (post-breeding) [1, 5]: 265 ± 39 mg/dL
- Blood sugar level (initial value) [1, 6]: 455 ± 39 mg/dL
- Blood sugar level (initial value) [1, 7]: 451 ± 34 mg/dL
- Blood sugar level (initial value) [1, 8]: 451 ± 38 mg/dL
- fasting blood sugar level [2]: decreased significantly
- postprandial blood sugar level [2]: decrease significantly
- 1-5AG ([2]; Week 0): 24.3 ± 7.7 µg/mL
- Glycoalbumin ([2]; Week 0): 14.7 ± 1.3 % by mass
- HbA1c ([2]; Week 0): 5.1 ± 0.1 % by mass
- Insulin (fasting) ([2]; Week 0): 5.5 ± 1.5 μU/mL
- 1-5AG ([2]; Week 2): 24.2 ± 7.1 µg/mL
- Glycoalbumin ([2]; Week 2): 14.5 ± 1.3 % by mass
- HbA1c ([2]; Week 2): 5.1 ± 0.2 % by mass
- Insulin (fasting) ([2]; Week 2): 6.1 ± 2.1 μU/mL
- 1-5AG ([2]; Week 4): 25.0 ± 7.5 µg/mL
- Glycoalbumin ([2]; Week 4): 14.3 ± 1.3 % by mass
- HbA1c ([2]; Week 4): 5.1 ± 0.1 % by mass
- Insulin (fasting) ([2]; Week 4): 5.8 ± 4.2 μU/mL
- 1-5AG ([2]; Week 8): 25.6 ± 6.3 µg/mL
- Glycoalbumin ([2]; Week 8): 14.2 ± 1.3 % by mass
- HbA1c ([2]; Week 8): 4.8 ± 0.2 % by mass
- Insulin (fasting) ([2]; Week 8): 6.2 ± 2.4 μU/mL
